Data: patent US20260240765A1, “RIFAMYCIN-QUINOLIZINONE COUPLED MOLECULE OINTMENT AND METHOD FOR PREPARING SAME” (Tennor Therapeutics (Zhongshan) Limited, priority 2022, published 2026)

How the values were obtained:
[1] = cited from earlier work
[2] = Saturation solubility of API in ointment bases; type: physicochemical
Protocol: (§1) Experimental steps: About 340 mg of API was added gradually and slowly to about 5 g of PEG400 (in a water bath at 40° C.), and the mixture was dissolved by magnetic stirring. The orange-red mixture was gradually viscous and could no longer be stirred. About 7 g of PEG400 was added gradually and stirred for another 20 min. The resulting mixture was divided into two portions, one portion was maintained in a water bath at 40° C., and the other portion was cooled to room temperature. Both portions were filtered through a PES water membrane (13 mm, 0.45 μm), and the filtrates were collected for content analysis.
as §1, with “About 400” for “Experimental steps: About 340”, “About 400 mg of” for “steps: About 340 mg of”, “g of propylene glycol (in a” for “g of PEG400 (in a”, “mixture was stirred for dissolution. The orange-red” for “mixture was dissolved by magnetic stirring. The orange-red”

For `CO[C@H]1/C=C/O[C@@]2(C)Oc3c(C)c(O)c4c(O)c(c(/C=N/N5CCC(N(C)C6([C@@H]7CCN(c8c(F)cn9c(=O)c(C(=O)O)cc(C%10CC%10)c9c8C)C7)CC6)CC5)c(O)c4c3C2=O)NC(=O)/C(C)=C\C=C\[C@H](C)[C@H](O)[C@@H](C)[C@@H](O)[C@@H](C)[C@H](OC(C)=O)[C@@H]1C` [API, rifamycin-quinolizinone coupling molecule], the “Solubility in dichloromethane, polyethylene glycol 400, and dimethyl sulfoxide” value [1] is given as “soluble”, the “Solubility in ethanol, methanol, and diethyl ether” value [1] is given as “almost insoluble” and the Water solubility [1] is given as “low”. For the same molecule, the “Oxidation on exposure to air” value ([1]; phenol form converts to quinone form) was “easily to be oxidized”, the “pH of maximum water solubility” value ([1]; water solubility is pH-dependent, relatively low at low pH) was 10 and the Saturation solubility ([2]; in PEG400, 40° C.) was 23.79 mg/g. The Saturation solubility ([2]; in PEG400, room temperature) was 5.80 mg/g, the Saturation solubility ([2]; in propylene glycol, 40° C.) was 0.65 mg/g and the Saturation solubility ([2]; in propylene glycol, room temperature) was 0.15 mg/g.
